# How the values were obtained:
# [1] = tested on: FRDA cell line; experiment: Trypan blue exclusion cell viability assay, DEM-stressed cells; type: cell-based; conditions: FRDA cells stressed with DEM
# Description: (§1) Friedreich's Ataxia lymphocytes and control cells (Coriell, catalogue number GM158150, and GM158151, respectively) were cultured in RPMI (GIBCO, Grand island, NY, USA) with 15% FBS (Fisher Scientific, TX, USA), 2 mM glutamine (HyClone, South Logan, Utah, USA) and 1% penicillin-streptomycin mix antibiotics (Cellgro, Manassas, Va., USA) supplements. Cells were maintained in the log phase at a concentration of between 1×10^5 and 1×10^6 cells/mL.
# V. Trypan Blue Cell Viability Assay
# Cell viability determined by trypan blue exclusion assay: This technique was used to assess the cytoprotective effects of the invention compounds in cultured cells pharmacologically treated to induce cell death by GSH depletion. DEM was used to deplete cellular GSH and induce oxidative stress. The viability of DEM-treated cells was determined by their ability to exclude the dye trypan blue. Viable cells exclude trypan blue; whereas, non-viable cells take up the dye and stain blue. Briefly, cells were seeded at a density of 1×10^6 cells/mL and treated with different concentrations of the invention compounds. Cells were incubated at 37° C. in a humidified atmosphere of 5% CO2 in air for three hours with 5 mM DEM. Cell viability was determined by staining cells with 0.4% trypan blue using a hemocytometer. At least 500 cells were counted for each experimental group. At the time of assay, >95% of DEM-treated cells were trypan blue positive; whereas, in non-DEM treated control cell cultures >95% cells were viable. Cell viability was expressed as the percentage of control. Data are expressed as means±S.E.M (n=3).
# [2] = tested on: leukemia CEM lymphocytes; experiment: Suppression of lipid peroxidation (C11-BODIPY 581/591, FACS) in DEM-treated cells; type: cell-based; conditions: CEM cells treated with DEM, untreated control 100, treated control 0
# Description: as §1, with “Leukemic CEM” for “Friedreich's Ataxia lymphocytes and control”, “(ATCC®,” for “(Coriell,”, “CRL-2264)” for “GM158150, and GM158151, respectively)”, “10%” for “15%”
# Measurement of C11-BODIPY^581/591 Oxidation in Cell Culture
# Lipid peroxidation in cells was detected by utilizing the oxidant-sensitive lipophilic probe C11 BODIPY^581/591. […] Cells were treated with 500 nM C11 BODIPY^581/591 in phenol red-free RPMI-1640 media and incubated at 37° C. in the dark for 30 minutes. The cells were washed twice with phosphate buffered saline and oxidative stress was induced with 5 mM DEM in phenol red-free RPMI-1640 media for 90 minutes. Treated cells were collected by centrifugation at 300×g for 3 minutes and then washed twice with phosphate buffered saline. Cells were re-suspended in 250 μL of phosphate buffered saline and were analyzed by FACS (FACS Calibur flow cytometer, Becton Dickinson) to monitor the change in intensity of the C11 BODIPY^581/591 green (oxidized) fluorescence signal.
SMILES,viability at 0.1 µM [1],viability at 0.5 µM [1],viability at 2.5 µM [1],Scavenging activity (%) (lipid peroxidation) ([2]; 1 μM),Scavenging activity (%) (lipid peroxidation) ([2]; 5 μM)
"CCCCCCCc1c(C)n(O)c(C)c(Cl)c1=O [CPD-12, 3-chloro-5-heptyl-1-hydroxy-2,6-dimethylpyridin-4(1H)-one]",15 ± 6%,29 ± 3%,39 ± 3%,0%,0%
"CCCCCCCc1c(C)n(O)c(C)cc1=O [CPD-6, 3-heptyl-1-hydroxy-2,6-dimethylpyridin-4(1H)-one]",27 ± 7%,30 ± 13%,24 ± 6%,0%,0%
"CCCCCCCCCCc1c(C)n(O)c(C)cc1=O [CPD-7, 3-decyl-1-hydroxy-2,6-dimethylpyridin-4(1H)-one]",36 ± 6%,14 ± 5%,20 ± 3%,0%,0%
"CCCCCCCc1c(C)n(O)c(C)c(Br)c1=O [CPD-9, 3-bromo-5-heptyl-1-hydroxy-2,6-dimethylpyridin-4(1H)-one]",31 ± 12%,28 ± 7%,32 ± 5%,0%,0%
"CCCCCCCCCCCCCCCCc1c(C)n(O)c(C)c(Br)c1=O [CPD-11, 3-bromo-5-hexadecyl-1-hydroxy-2,6-dimethylpyridin-4(1H)-one]",12 ± 5%,6 ± 3%,8 ± 3%,7 ± 2.3%,15 ± 3.3%
"CCCCCCCCCCc1c(C)n(O)c(C)c(Cl)c1=O [CPD-13, 3-chloro-5-decyl-1-hydroxy-2,6-dimethylpyridin-4(1H)-one]",17 ± 3%,14 ± 2%,19 ± 5%,0%,0%
"CCCCCCCCCCCCCCCCc1c(C)n(O)c(C)cc1=O [CPD-8, 3-hexadecyl-1-hydroxy-2,6-dimethylpyridin-4(1H)-one]",19 ± 6%,15 ± 5%,18 ± 2%,10 ± 4.3%,20 ± 3.4%
"CCCCCCCCCCc1c(C)n(O)c(C)c(Br)c1=O [CPD-10, 3-bromo-5-decyl-1-hydroxy-2,6-dimethylpyridin-4(1H)-one]",19 ± 6%,20 ± 13%,32 ± 8%,0%,0%
